Tested on: aerobic bacteria
Experiment: Shelf life of minced meat stored at 4° C. (total number of aerobic bacteria)
Format: cell-based
Protocol: The usual formulation of a minced meat was prepared with the following ingredients:
Preservatives were added to this basic formulation, the maximum percentage being 4% (of a fermentate having a main-salt concentration of 40%) compared with the whole of the meat-based food product.
The minced meats are prepared according to the following procedure:
a) Preparing of the meat: the meat and fat are cut into small pieces and minced using a mincer having a 4 mm mincing grille. The meat, fat and other ingredients are then disposed by means of a mixer of the Kenwood type having a type K stirring blade. Operate the stirring for 30 seconds (minimum power).
b) Sampling: the product thus obtained is divided into 100 g samples and placed in plastic bags.
c) Storage: the products obtained are packaged in stretch film and stored at a temperature of 4° C.±1° C. for 10 days.
Twice a week, the pH, the activity of the water (Aw) and total number of aerobic bacteria were evaluated on the samples.
The shelf life of the product prepared without a preservative (reference) was compared with that of the product containing standard potassium lactate—Galoflow PL (Galactic SA) and that of the product containing the fermentate obtained by sugar fermentation by Bacillus coagulans spp. […] The results are set out in graph 1. […]

CC(O)C(=O)[O-].[K+] (centres unmarked) [potassium lactate]
preservative effect on the meat matrix (Example 2, minced meat, each at a concentration not impacting on the taste (0.05% potassium acetate, 2% potassium lactate), graph 2): preservative effect superior to that of potassium acetate | effect on shelf life of the product (Example 3, minced meat, potassium lactate with main-salt concentration 60% at various concentrations, 4° C., graph 3): increases the shelf life of the product

Reference: US20140045776A1, “METHOD FOR INCREASING THE SHELF LIFE OF FOOD PRODUCTS” (GALACTIC S.A., priority 2011, published 2014)
